Measurements taken from patent publication US7056947B2, “Aza-peptide epoxides” (Georgia Tech Research Corp., priority 2002, dated 2006).

Experiments:
Type in all cases: biochemical
[1] = molecular target: T1, caspase-3 (Homo sapiens, UniProt P42574); assay: Caspase-3 progress curve assay; conditions: substrate Z-DEVD-AFC; NI = no inhibition
T1 construct: made in house; host or cells: E. coli
T1 sequence (P42574 29-175 limits assumed): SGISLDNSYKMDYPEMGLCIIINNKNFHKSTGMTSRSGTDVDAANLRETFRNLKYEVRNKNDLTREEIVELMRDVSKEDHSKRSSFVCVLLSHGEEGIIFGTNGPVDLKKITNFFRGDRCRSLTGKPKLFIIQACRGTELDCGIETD
T1 sequence (P42574 176-277 limits assumed): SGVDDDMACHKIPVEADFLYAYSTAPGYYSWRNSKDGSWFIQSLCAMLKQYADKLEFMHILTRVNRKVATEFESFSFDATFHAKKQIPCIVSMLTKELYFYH
Outline: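 E. coli-expressed caspases, pre-activated 10 min at 37° C with 10 mM DTT, were added to 100 μM Z-DEVD-AFC plus inhibitor in 50 mM Hepes, 100 mM NaCl, 0.1% CHAPS, 10% sucrose, 10 mM DTT, pH 7.4. AFC fluorescence (ex 400/em 505 nm) was followed; inhibition rates and equilibria came from progress curves.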

[2] = molecular target: T2, caspase-6 (Homo sapiens, UniProt P55212); assay: Caspase-6 progress curve assay; conditions: Table V, substrate Z-DEVD-AFC
T2 construct: made in house; host or cells: E. coli
T2 sequence (P55212 24-179 limits assumed): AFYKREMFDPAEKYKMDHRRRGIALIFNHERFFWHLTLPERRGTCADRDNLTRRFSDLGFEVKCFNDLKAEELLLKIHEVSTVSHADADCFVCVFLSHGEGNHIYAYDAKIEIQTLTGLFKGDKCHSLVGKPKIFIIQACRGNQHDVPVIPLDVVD
T2 sequence (P55212 194-293 limits assumed): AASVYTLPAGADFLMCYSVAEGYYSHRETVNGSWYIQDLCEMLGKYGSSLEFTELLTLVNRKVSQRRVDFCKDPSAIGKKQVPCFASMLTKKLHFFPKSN
Description: Caspase-3, -6, and -8. Caspase-3, -6 and -8 were expressed in E. coli and purified according to methods previously described by Stennicke and Salvesen. Assays using the fluorogenic substrate Z-DEVD-AFC (λex=400 nm, λem=505 nm) were carried out on a Molecular Devices fMax fluorescence microplate reader. Inhibition rates and equilibria were determined by the progress curve method. The standard 100 μL reaction was started by adding enzyme to a mixture of substrate (final concentration of Z-DEVD-AFC 100 μM) and various amounts of inhibitor in buffer (50 mM Hepes, 100 mM NaCl, 0.1% (w/v) CHAPS, sucrose 10% (w/v), and 10 mM DTT, at pH 7.4). The caspases were pre-activated for 10 min at 37° C. in the presence of 10 mM DTT.

[3] = molecular target: dipeptidyl peptidase I (DPPI, cathepsin C) (Homo sapiens, UniProt P53634); assay: Inhibition of DPPI
[4] = test system: calpain; assay: Inhibition of calpain; conditions: second-order rate constant; NI = no inhibition
[5] = molecular target: T3, papain (Carica papaya, UniProt P00784); assay: Inhibition of papain, incubation method; conditions: second-order rate constant, NI = no inhibition; for kinact/KI: pH 7.5, read-out: kobs/[I] papain
T3 sequence (P00784 134-345): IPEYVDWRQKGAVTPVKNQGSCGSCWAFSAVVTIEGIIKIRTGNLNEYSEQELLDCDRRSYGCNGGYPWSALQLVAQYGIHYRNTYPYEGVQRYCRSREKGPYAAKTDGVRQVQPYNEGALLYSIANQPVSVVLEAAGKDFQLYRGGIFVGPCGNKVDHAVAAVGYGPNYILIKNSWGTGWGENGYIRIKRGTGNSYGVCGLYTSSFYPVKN
Description: (§1) The release of 7-amino-4-methylcoumarin was monitored (λex=360 nm, λem=465 nm) using a Tecan Spectra Fluor microplate reader. Pseudo first-order inactivation rate constants were obtained from plots of In vt/vo versus time.
The incubation method was also used for papain. The inhibition incubation buffer for papain was 50 mM Hepes buffer at pH 7.5, containing 2.5 mM DTT and 2.5 mM EDTA. The assay used the substrate Z-Phe-Arg-pNA (53.7 μM) in the same buffer. The approximate concentration of papain added to the incubation buffer was 0.29 mg/mL. The release of p-nitroanilide was monitored at 405 nm with a Molecular Devices Thermomax microplate reader.

[6] = molecular target: cathepsin B (Homo sapiens, UniProt P07858); assay: Inhibition of cathepsin B, incubation method; conditions: second-order rate constant, NI = no inhibition; for kinact/KI: pH 6, read-out: kobs/[I] cathepsin B
Description: as §1

[7] = molecular target: T4, caspase-1 (Homo sapiens, UniProt P29466, D381E); assay: Caspase-1 progress curve assay; conditions: D381E variant, substrate Ac-YVAD-AMC, 30° C.
T4 construct: His tag (N); made in house; host or cells: E. coli
T4 sequence (P29466 120-297 limits assumed): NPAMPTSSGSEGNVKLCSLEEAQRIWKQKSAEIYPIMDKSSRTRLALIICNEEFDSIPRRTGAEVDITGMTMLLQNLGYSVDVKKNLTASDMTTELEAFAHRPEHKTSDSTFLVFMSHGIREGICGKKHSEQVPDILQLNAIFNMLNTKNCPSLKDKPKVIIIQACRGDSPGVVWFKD
T4 sequence (P29466 317-404 D381E limits assumed): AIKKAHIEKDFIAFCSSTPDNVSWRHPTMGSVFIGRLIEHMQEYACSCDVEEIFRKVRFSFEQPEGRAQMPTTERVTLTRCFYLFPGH
Outline: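 Autolysis-resistant D381E caspase-1 (E. coli, N-His tag), about 2 nM, added with 15 μM Ac-YVAD-AMC in HEPES/glycerol/EDTA buffer with 5 mM DTT to prewarmed compound at 30 °C. AMC fluorescence followed 900 s, triplicate curves fit to irreversible inactivation; kon (M^−1s^−1) from regression slope.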

Chain of dipeptidyl peptidase I (DPPI, cathepsin C) (P53634 25-463, species assumed): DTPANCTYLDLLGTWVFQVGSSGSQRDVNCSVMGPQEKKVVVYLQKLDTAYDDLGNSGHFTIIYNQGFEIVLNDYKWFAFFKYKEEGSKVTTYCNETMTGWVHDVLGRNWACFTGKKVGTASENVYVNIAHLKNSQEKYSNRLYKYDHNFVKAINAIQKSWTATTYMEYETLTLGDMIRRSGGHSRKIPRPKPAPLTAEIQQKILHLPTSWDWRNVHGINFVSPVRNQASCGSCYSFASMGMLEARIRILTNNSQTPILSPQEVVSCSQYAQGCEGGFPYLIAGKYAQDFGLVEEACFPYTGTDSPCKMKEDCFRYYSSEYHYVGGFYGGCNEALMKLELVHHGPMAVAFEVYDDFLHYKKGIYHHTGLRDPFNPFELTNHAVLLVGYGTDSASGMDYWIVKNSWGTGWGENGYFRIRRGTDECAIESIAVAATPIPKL

Compound | k2 caspase-3 [1] | k2 caspase-6 [2] | kobs/[I] calpain [4] | also measured
CC(C)C[C@H](NC(=O)OCc1ccccc1)C(=O)N[C@@H](CCC(=O)O)C(=O)N[C@H](C(=O)NN(CC(=O)O)C(=O)[C@H]1O[C@@H]1C(=O)N(C)Cc1ccccc1)[C@@H](C)O [11-16, (2S,3S)-2-(N-Methyl-N-benzylcarbamoyl)-3-(N^2-(N-benzyloxycarbonylleucylglutamylthreonyl)-N^1-carboxymethylhydrazinocarbonyl)oxirane] | 2640 ± 100 M⁻¹ s⁻¹ | 9680 ± 875 M⁻¹ s⁻¹ | – | –
trans-3-(N^2-Norvalyl)-N^1-phenylethylhydrazinocarbonyl)-1-(2-phenylethyl)oxirane Trifluoroacetate Salt [Nva-AHph-trans-EP-CH2CH2Ph.TFA] | – | – | – | kobs/[I] DPPI [3]: 0.1 M⁻¹ s⁻¹
CC[C@H](C)[C@H](NC(=O)OCc1ccccc1)C(=O)N[C@@H](CCC(=O)O)C(=O)N[C@H](C(=O)NN(CC(=O)O)C(=O)[C@H]1O[C@@H]1C(=O)N(C)Cc1ccccc1)[C@@H](C)O [11-18, (2S,3S)-2-(N-Methyl-N-benzylcarbamoyl)-3-(N^2-(N-benzyloxycarbonylisoleucylglutamylthreonyl)-N^1-carboxymethylhydrazinocarbonyl)oxirane] | 4780 M⁻¹ s⁻¹ | 47730 ± 420 M⁻¹ s⁻¹ | – | –
CC(C)C[C@H](NC(=O)OCc1ccccc1)C(=O)N[C@@H](CC(C)C)C(=O)NN(CC(C)C)C(=O)[C@H]1O[C@@H]1C(=O)O [Cbz-Leu-Leu-ALeu-(2S, 3S)-EP-COOH, (2S,3S)-3-(N^2-(N-Benzyloxycarbonylleucylleucyl)-N^1-isobutylhydrazinocarbonyl)oxirane-2-carboxylic Acid] | – | – | 0.82 M⁻¹ s⁻¹ | kinact/KI [5]: 6.93 M⁻¹ s⁻¹; kinact/KI [6]: 7.02 M⁻¹ s⁻¹
CCCCN(CCCC)C(=O)[C@H]1O[C@@H]1C(=O)N(CC(=O)O)NC(=O)[C@H](C)NC(=O)[C@@H](NC(=O)CCc1ccccc1)C(C)C [10-129, (2S,3S)-2-(Dibutylcarbamoyl)-3-(N^2-(3-phenylpropanoylvalylalanyl)-N^1-carboxymethylhydrazinocarbonyl)oxirane] | 520 ± 10 M⁻¹ s⁻¹ | 53 ± 9 M⁻¹ s⁻¹ | – | k2 caspase-1 [7]: 26150 ± 5460 M⁻¹ s⁻¹
CCOC(=O)[C@@H]1O[C@H]1C(=O)N(CC(C)C)NC(=O)[C@H](CC(C)C)NC(C)=O (relative stereo) [Ac-Leu-ALeu-trans-EP-COOEt, trans-3-(N^2-(N-Acetylleucyl)-N^1-isobutylhydrazinocarbonyl)oxirane-2-carboxylic Acid Ethyl Ester] | – | – | 1.48 M⁻¹ s⁻¹ | kinact/KI [5]: 2.09 M⁻¹ s⁻¹; kinact/KI [6]: 8 M⁻¹ s⁻¹
CC(C)C[C@H](NC(=O)OCc1ccccc1)C(=O)N[C@@H](CCC(=O)O)C(=O)N[C@H](C(=O)NN(CC(=O)O)C(=O)[C@H]1O[C@@H]1C(=O)N(Cc1ccccc1)Cc1ccccc1)[C@@H](C)O [11-4, (2S,3S)-2-(Dibenzylcarbamoyl)-3-(N^2-(N-benzyloxycarbonylleucylglutamylthreonyl)-N^1-carboxymethylhydrazinocarbonyl)oxirane] | 2750 ± 205 M⁻¹ s⁻¹ | 13840 ± 270 M⁻¹ s⁻¹ | – | –
CCOC(=O)[C@@H]1O[C@@H]1C(=O)N(CC(C)C)NC(=O)C(CC(C)C)NC(=O)OCc1ccccc1 (relative stereo) [Cbz-Leu-ALeu-cis-EP-COOEt, cis-3-(N^2-(N-Benzyloxycarbonyleucyl)-N^1-isobutylhydrazinocarbonyl)oxirane-2-carboxylic Acid Ethyl Ester] | – | – | 1.88 M⁻¹ s⁻¹ | kobs/[I] papain [5]: 0.38 M⁻¹ s⁻¹; kobs/[I] cathepsin B [6]: 6.27 M⁻¹ s⁻¹
CC(C)[C@H](NC(=O)CCc1ccccc1)C(=O)N[C@@H](C)C(=O)NN(CC(=O)O)C(=O)[C@H]1O[C@@H]1C(=O)N(Cc1ccccc1)Cc1ccccc1 [10-127, (2S,3S)-2-(Dibenzylcarbamoyl)-3-(N^2-(3-phenylpropanoylvalylalanyl)-N^1-carboxymethylhydrazinocarbonyl)oxirane] | 830 ± 40 M⁻¹ s⁻¹ | 145 ± 1 M⁻¹ s⁻¹ | – | k2 caspase-1 [7]: 101140 ± 9547 M⁻¹ s⁻¹
CCOC(=O)C1OC1C(=O)N(CCc1ccccc1)NC(C)=O (stereo not drawn) [Ac-AHph-trans-EP-COOEt, trans-3-(N^2-(N-Acetyl)-N^1-phenylethylhydrazinocarbonyl)oxirane-2-carboxylic Acid Ethyl Ester] | – | – | 1.29 M⁻¹ s⁻¹ | kobs/[I] papain [5]: 26.88 M⁻¹ s⁻¹; kobs/[I] cathepsin B [6]: 40.62 M⁻¹ s⁻¹
CC(C)[C@H](NC(=O)CCc1ccccc1)C(=O)N[C@@H](C)C(=O)NN(CC(=O)O)C(=O)[C@H]1O[C@@H]1C(=O)N(C)Cc1ccccc1 [11-17, (2S,3S)-2-(N-Methyl-N-benzylcarbamoyl)-3-(N^2-(3-phenylpropanoylvalylalanyl)-N^1-carboxymethylhydrazinocarbonyl)oxirane] | 1950 ± 150 M⁻¹ s⁻¹ | 136 M⁻¹ s⁻¹ | – | –
CCOC(=O)[C@H]1O[C@@H]1C(=O)N(CC(C)C)NC(=O)C(CC(C)C)NC(=O)OCc1ccccc1 (stereo partly drawn) [Cbz-Leu-ALeu-(2S, 3S)-EP-COOEt, (2S,3S)-3-(N^2-(N-Benzyloxycarbonyleucyl)-N^1-isobutylhydrazinocarbonyl)oxirane-2-carboxylic Acid Ethyl Ester] | – | – | 8.58 M⁻¹ s⁻¹ | kobs/[I] papain [5]: 10.53 M⁻¹ s⁻¹; kobs/[I] cathepsin B [6]: 1.8 M⁻¹ s⁻¹
CCCC(N)C(=O)NN(CCc1ccccc1)C(=O)C1OC1C(=O)OCC.O=C(O)C(F)(F)F (stereo not drawn) [Nva-AHph-trans-EP-COOEt.TFA] | – | – | – | kobs/[I] DPPI [3]: 3.2 M⁻¹ s⁻¹
CC[C@H](C)[C@H](NC(=O)OCc1ccccc1)C(=O)N[C@@H](CCC(=O)O)C(=O)N[C@H](C(=O)NN(CC(=O)O)C(=O)[C@H]1O[C@@H]1C(=O)N(Cc1ccccc1)Cc1ccccc1)[C@@H](C)O [11-11, (2S,3S)-2-(Dibenzylcarbamoyl)-3-(N^2-(N-benzyloxycarbonylisoleucylglutamylthreonyl)-N^1-carboxymethylhydrazinocarbonyl)oxirane] | 3550 M⁻¹ s⁻¹ | 32000 ± 1680 M⁻¹ s⁻¹ | – | –
CCOC(=O)[C@H]1O[C@@H]1C(=O)N(CCc1ccccc1)NC(=O)C(CC(C)C)NC(=O)OCc1ccccc1 (stereo partly drawn) [Cbz-Leu-AHph-(2S, 3S)-EP-COOEt, (2S,3S)-3-(N^2-(N-Benzyloxycarbonyleucyl)-N^1-phenylethylhydrazinocarbonyl)oxirane-2-carboxylic Acid Ethyl Ester] | – | – | 2.28 M⁻¹ s⁻¹ | kobs/[I] papain [5]: 5.68 M⁻¹ s⁻¹; kobs/[I] cathepsin B [6]: 0.67 M⁻¹ s⁻¹
